Earlier results, collected in patent publication US20240130871A1, “DRUG-COATED ENDOVASCULAR DEVICES” (UNIVERSITY OF SOUTH CAROLINA, priority 2022, published 2024).

Conditions: current DCB devices

delivered PTX lost to systemic circulation: > 90%
Compound: CC(=O)O[C@H]1C(=O)[C@@]2(C)[C@H]([C@H](OC(=O)c3ccccc3)[C@]3(O)C[C@H](OC(=O)[C@H](O)[C@@H](NC(=O)c4ccccc4)c4ccccc4)C(C)=C1C3(C)C)[C@]1(OC(C)=O)CO[C@@H]1C[C@@H]2O [PTX, paclitaxel]
